What was measured:
[1] = test system: human lung cancer A549 cells; assay: Erlotinib accumulation and stereoisomerization in A549 cells and treatment media (LC-MS-MS); format: cell-based; conditions: for conversion of parent drug to the 1.78 minute stereoisomer in the presence of cells: media with A549 cells
Description: Analysis of erlotinib metabolism was carried out using erlotinib-resistance cancer cells (human lung cancer A549 cells). Cells were exposed to achievable clinical doses (3 μM) of erlotinib and then lysed at various times following exposure to the drug. Relative erlotinib concentrations were determined in the A549 cell treatment media and compared to levels of erlotinib containing media incubated in the absence of cells as a control. Erlotinib concentrations were assessed using a liquid chromatography dual mass spectrometric method. […] Based on an analysis of chemical structure, only one stereoisomer of the parent drug could account for the 1.78 minute variant form. The stereoisomer migrating at 1.78 minutes represents the L or S configuration of this molecule, wherein the configuration is determined by performing liquid chromatographic separation of the two stereoisomers followed by nuclear magnetic resonance (NMR) analysis of each.
Culture of A549 human lung cancer cells were carried out in Ham's F12 media with L-glutamine containing 10% fetal bovine serum, amphoterecin B, penicillin, and streptomycin. Cells were plated at a density of 300,000 cells per well in a 6 well plate. Cells were allowed to adhere overnight, media was aspirated and 3 mL of treatment media containing 3 μM erlotinib was added to each well. At the same time, 3 mL of the same media was added to wells that contained no cells as a control. One hundred μL of the media was removed from the wells immediately prior to harvesting the cells at various time points. The remaining media was removed and 250 μL of distilled deionized water was added to each well. Cells were also disrupted with a rubber policeman. Each media or cell extract sample was brought to a 1 mL volume with methanol and water (final concentration 50% methanol). Fifty μL of 0.4 M ZnSO4 was added to each sample. Samples were vortexed for 10 seconds and centrifuged at 13,000 RCF for 5 minutes. The supernatants from each were subjected to LC-MS-MS chromatographic analysis using a Waters® Model 2795 system equipped with a Waters® X-Terra® MS column. The mobile phase was composed of 70% methanol containing 0.1% formic acid at a flow rate of 0.15 mL per minute. Dual mass spectroscopy was performed with 394 for the initial mass and 278 for the daughter ion (after collision using argon gas). Dual mass spectroscopic analysis of midazolam was used as an internal standard and was performed at the same time using 326 as the mass for the parent and 291 for the daughter ion. Data was collected and analyzed using Masslynx™ version 3.4 software.

[2] = test system: chemotherapy refractory non-small cell lung cancer; conditions: cited from earlier work
cyclin D1 protein = conditions: in vitro and in vivo, aerodigestive tract cancers; cited from earlier work
human tumor xenografts = conditions: animals; cited from earlier work

## C#Cc1cccc(Nc2ncnc3cc(OCCOC)c(OCCOC)cc23)c1 [erlotinib, N-(3-ethynylphenyl)-6,7-bis(2-methoxyethoxy)quinazolin-4-amine]
[1]; A549 cells, 3 μM erlotinib, 8 hours
  intracellular concentration of erlotinib by 8 hours: nearly undetectable levels
[1]; A549 cells, 3 μM erlotinib, cell lysates
  time at which intracellular concentrations of erlotinib peaked: 4 h
[1]; A549 treatment media, 3 μM erlotinib
  total erlotinib concentrations in the treatment media over the time course: did not vary significantly
[1]; control media without cells, throughout the time course
  stereoisomer present in the media in the absence of cells: parent drug constituted the most abundant stereoisomer
[1]; 4 hours
  conversion of parent drug to the 1.78 minute stereoisomer in the presence of cells: some conversion
[1]; 8 hours
  conversion of parent drug to the 1.78 minute stereoisomer in the presence of cells: complete conversion
[2]; doses in the range of 150 mg, patients
  toxicity at clinical dose: little reported toxicity
[2]; patients with chemotherapy refractory non-small cell lung cancer
  dose showing the ability to affect tumor growth: ~150 mg
Cyclin D1 protein
  effect on expression of cyclin D1 protein: represses expression of cyclin D1 protein
Human tumor xenografts
  dose inhibiting proliferation of human tumor xenografts: ~10 mg/kg

From patent US20080207653A1, “Compositions and Method for Increasing the Efficacy of Epidermal Growth Factor Receptor Tyrosine Kinase Inhibitors” (priority 2005, published 2008)
